In patent US9221907B2, “Anti-GPR49 monoclonal antibodies” (Bionomics Inc., priority 2011, dated 2015):

System: colon tumor cells re-implanted in secondary recipients
Assay: Secondary transplant of GPR49 mAb+irinotecan treated tumor cells
Assay type: in vivo, mouse
Details: 140 day follow-up
Excerpt: Isolated tumor cells from control or GPR49 mAb+irinotecan treated tumors from the in vivo study outlined in Example 3 were harvested, pooled, dissociated and re-implanted in a limiting dilution secondary transplant assay to measure cancer stem cell frequency. For each treatment group, 8 mice were implanted with 10, 30, 100 cells. […]

SMILES: CCc1c2c(nc3ccc(OC(=O)N4CCC(N5CCCCC5)CC4)cc13)-c1cc3c(c(=O)n1C2)COC(=O)[C@]3(O)CC [Irinotecan]
- mice with tumors: 7/8
